This passage reports inhibition results from patent US8921405B2, “Compounds” (Orexo AB, priority 2009, dated 2014).

As a reminder, the inhibition is the change of the read-out against control, counted positive when it falls.

In the assay the target is T1, recombinant human mPGES-1 (Homo sapiens, UniProt O14684).
T1 construct: made in house; host or cells: Rosetta E. coli (membrane/microsome fraction)
T1 sequence (O14684 1-152): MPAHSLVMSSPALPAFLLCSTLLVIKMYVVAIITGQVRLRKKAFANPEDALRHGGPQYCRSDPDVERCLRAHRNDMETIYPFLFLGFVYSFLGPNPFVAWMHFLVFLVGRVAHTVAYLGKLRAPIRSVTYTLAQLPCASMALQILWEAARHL
Briefly: mPGES-1 HTRF assay (inhibition of PGE2 formation from PGH2). It is filed as biochemical. The conditions noted are these: compound concentration of 10 μM, HTRF assay; read-out: % inhibition. Here is the method: The basis of the assay used is to measure the inhibition of microsomal prostaglandin E2 synthase-1 (mPGES-1) dependent prostaglandin (PG) E2 formation from PGH2 by different compounds. Thus, the formation of PGE2 is used as signal and a lowering of this signal can be interpreted as inhibition of mPGES-1. […] Microsomes from Rosetta E. coli bacteria expressing recombinant human mPGES-1 can be derived as described below: Inoculate 5 ml LB with Amp and Chloro with bacteria from freeze culture. Incubate over night at 37° C. with 200 rpm. Thereafter, inoculate 500-800 ml LB containing Amp and Chloro with the 5 ml on culture and grow to OD640 of 0.6-0.8. Chill the culture to +4° C. before induction. Induce the culture with IPTG at a final concentration of 400 μM. Express the protein at room temp 18-23° C. with 200 rpm shaking over night. The following steps can be performed on the following day: • 1. Spin down the cells in 250 ml centrifuge flasks for 15 min at 7000 rpm • 2. Dissolve the pellet from 250 ml culture in 12.5 ml homogenization buffer • 3. Disintegrate the cells by sonication, 4×10 seconds at 35% amplitude • 4. Add 2.5 ml MgCl2 (100 mM) and DNase 12.5 μl (0.8 mg/ml) and incubate on ice for 30 min • 5. Spin down the bacteria debris and save the supernatant, 7000 rpm for 15 min • 6. Isolate the protein containing membranes in the supernatant by ultracentrifugation 45000×g for 1 hour. • 7. Discard the supernatant and dissolve the pellet in 20 mM KPi buffer and aliquot the enzyme and store aliquots at −80° C. Before each experiment is performed an aliquot of the enzyme is thawed and it can then be dissolved in 0.1 M KPi pH 7.4 buffer containing 2.5 mM GSH. 50 μl of this enzyme solution is subsequently dispensed in a 384-well plate at room temperature. 0.5 μl of the inhibitor dissolved in DMSO is thereafter added to each well and incubated for 25 minutes at room temperature. Subsequently, 2 μl of PGH2 dissolved in an appropriate solvent is added to each well and after one minute at room temperature, the acidified stop solution containing FeCl2 is added. 4 μl of the total volume is transferred to a separate plate and diluted 750-fold in two separate steps before quantification of PGE2. In order to quantitate the amount of PGE2 that has been formed, a homogenous time resolved fluorescent (HTRF) detection of PGE2 can be performed by the use of a commercially available kit from CisBio essentially according to the manufacturer's protocol. […] The sealing film is thereafter removed from the NC wells. • 5 μl Eu3+-cryptate labeled anti-PGE2 can now be added to rows 1 to 24 by using a Multidrop. • The plate can now be covered with sealing film. • The plate can now be centrifuge at 1200 rpm for 1 minute and place at 4° C. overnight. After the over night incubation the fluorescence is measured by the use of an appropriate microplate reader. […] The extent of the specific HTRF is measured as a ratio of the emission intensity at 665 nm vs. that at 620 nm. A standard curve using synthetic PGE2 is used to quantify the amount of PGE2 in unknown samples. The degree of inhibition can be calculated as percent inhibition by dividing the amount of PGE2 formed in unknown samples by the amount of PGE2 formed in control samples.
Take `Cn1c(Nc2cc(CNC(=O)C3(C)CCCCC3)ccc2Cl)nc2cc(Cl)c(NC(=O)c3ccc(Br)cc3)cc21` [Example 25, 4-Bromo-N-(5-chloro-2-{2-chloro-5-[(1-methylcyclohexylamido)methyl]phenylamino}-1-methyl-6-benzimidazolyl)benzamide]: the inhibition at 10 µM is 99%.
In the case of `CN(C1CCCC1)S(=O)(=O)c1ccc2c(c1)nc(Nc1cc(CNC(=O)C3(C)CCCCC3)ccc1Cl)n2C` [Example 26, N-{4-Chloro-3-[5-(N-cyclopentyl-N-methylsulfamoyl)-1-methyl-2-benzimidazolylamino]benzyl}-1-methylcyclohexylamide], the inhibition at 10 µM worked out at 100%.
For the molecule `Cn1c(Nc2cc(CNC(=O)c3c(F)cccc3Cl)ccc2Cl)nc2cc(C(=O)NCC3CCCCC3)ccc21` [Example 27, 2-{2-Chloro-5-[(2-chloro-6-fluorobenzamido)methyl]phenylamino}-N-cyclohexylmethyl-1-methylbenzimidazole-5-carboxamide], the inhibition at 10 µM turned out to be 100%.
Take `Cn1c(Nc2cc(CNC(=O)C3CCCO3)ccc2Cl)nc2cc(C(=O)NCC3CCCCC3)ccc21` (centres unmarked) [Example 28, 2-{2-Chloro-5-[(2-tetrahydrofurylamido)methyl]phenylamino}-N-cyclohexylmethyl-1-methylbenzimidazole-5-carboxamide]: the inhibition at 10 µM came to 100%.
With `Cn1c(Nc2cc(CNC(=O)C3(C(F)(F)F)CC3)ccc2Cl)nc2cc(C(=O)NCC3CCCCC3)ccc21` [Example 30, 2-{2-chloro-5-[(1-trifluoromethylcyclopropylamido)methyl]phenyl-amino}-N-cyclohexylmethyl-1-methylbenzimidazole-5-carboxamide], the inhibition at 10 µM came out at 98%.
Under `Cn1c(Nc2cc(CNC(=O)C3(C)CCCC3)ccc2Cl)nc2cc(C(=O)NCC3CCCCC3)ccc21` [Example 31, 2-{2-Chloro-5-[(1-methylcyclopentylamido)methyl]phenylamino}-N-cyclohexylmethyl-1-methylbenzimidazole-5-carboxamide] stands 99%.
Regarding `CC(=O)NCc1ccc(Cl)c(Nc2nc3cc(C(=O)NCC4CCCCC4)ccc3n2C)c1` [Example 32, 2-[5-(Acetamidomethyl)-2-chlorophenylamino]-N-cyclohexylmethyl-1-methylbenzimidazole-5-carboxamide], the inhibition at 10 µM is 98%.
In the case of `Cn1c(Nc2cc(CNC(=O)OC(C)(C)C)ccc2Cl)nc2cc(C(=O)NCC3CCCCC3)ccc21` [Example 33], the inhibition at 10 µM came out at 93%.
As to `Cn1c(Nc2cc(CNC(=O)OC(C)(C)C)ccc2Cl)nc2cc(C(=O)Nc3ccc(Br)cc3)ccc21` [Example 34, tert-Butyl 3-[5-(4-bromophenylcarbamoyl)-1-methyl-2-benzimidazolylamino]-4-chlorobenzylcarbamate], the inhibition at 10 µM was 100%.
For `Cn1c(Nc2cc(CNC(=O)C3CCC(F)(F)CC3)ccc2Cl)nc2cc(C(=O)Nc3ccc(Br)cc3)ccc21` [Example 35, N-(4-Bromophenyl)-2-{2-chloro-5-[(4,4-difluorocyclohexylamido)-methyl]phenylamino]-1-methylbenzimidazole-5-carboxamide], the inhibition at 10 µM is 100%.
Take `Cn1c(Nc2cc(CNC(=O)c3c(F)cccc3Cl)ccc2Cl)nc2cc(C(=O)Nc3ccc(Br)cc3)ccc21` [Example 36, N-(4-Bromophenyl)-2-{2-chloro-5-[(2-chloro-6-fluorobenzamido)methyl]phenylamino}-1-methylbenzimidazole-5-carboxamide]: the inhibition at 10 µM came out at 100%.
The figure for `Cn1c(Nc2cc(CNC(=O)C3(C(F)(F)F)CC3)ccc2Cl)nc2cc(C(=O)Nc3ccc(Br)cc3)ccc21` [Example 37, N-(4-Bromophenyl)-2-{2-chloro-5-[(1-trifluoromethylcyclopropylamido)methyl]phenylamino}-1-methylbenzimidazole-5-carboxamide] is 100%; for `Cn1c(Nc2cc(CNC(=O)C3(C#N)CC3)ccc2Cl)nc2cc(C(=O)Nc3ccc(Br)cc3)ccc21` [Example 38, N-(4-Bromophenyl)-2-{2-chloro-5-[(1-cyanocyclopropylamido)methyl]-phenylamino}-1-methylbenzimidazole-5-carboxamide] it is 100%.
Under `Cn1c(Nc2cc(CNC(=O)[C@@H]3C[C@H]3c3ccccc3)ccc2Cl)nc2cc(C(=O)Nc3ccc(Br)cc3)ccc21` [Example 39, N-(4-Bromophenyl)-2-{2-chloro-5-[(trans-2-phenylcyclopropylamido)-methyl]phenylamino}-1-methylbenzimidazole-5-carboxamide] stands 100%; under `Cn1c(Nc2cc(CNC(=O)C3(C)COC3)ccc2Cl)nc2cc(C(=O)Nc3ccc(Br)cc3)ccc21` [Example 40, N-(4-Bromophenyl)-2-{2-chloro-5-[(3-methyl-3-oxetanylamido)methyl]-phenylamino}-1-methylbenzimidazole-5-carboxamide], 98%; under `Cn1c(Nc2cc(CNC(=O)C3(C)CCCC3)ccc2Cl)nc2cc(C(=O)Nc3ccc(Br)cc3)ccc21` [Example 41, N-(4-Bromophenyl)-2-{2-chloro-5-[(1-methylcyclopentylamido)methyl]-phenylamino}-1-methylbenzimidazole-5-carboxamide], 100%.
For `Cn1c(Nc2cc(CNC(=O)C3(C#N)CCCC3)ccc2Cl)nc2cc(C(=O)Nc3ccc(Br)cc3)ccc21` [Example 42, N-(4-Bromophenyl)-2-{2-chloro-5-[(1-cyanocyclopentylamido)methyl]-phenylamino}-1-methylbenzimidazole-5-carboxamide], the inhibition at 10 µM is 100%.
For `CC(=O)NCc1ccc(Cl)c(Nc2nc3cc(C(=O)Nc4ccc(Br)cc4)ccc3n2C)c1` [Example 43, 2-[5-(Acetamidomethyl)-2-chlorophenylamino]-N-(4-bromophenyl)-1-methylbenzimidazole-5-carboxamide], the inhibition at 10 µM amounted to 100%.
Under `Cn1c(Nc2cc(CNS(=O)(=O)c3cccs3)ccc2Cl)nc2cc(C(=O)Nc3ccc(Br)cc3)ccc21` [Example 44, N-(4-Bromophenyl)-2-{2-chloro-5-[(2-thienylsulfonamido)methyl]phenylamino}-1-methylbenzimidazole-5-carboxamide] stands 100%.
The figure for `Cn1c(Nc2cc(CNS(=O)(=O)C3CC3)ccc2Cl)nc2cc(C(=O)Nc3ccc(Br)cc3)ccc21` [Example 45, N-(4-Bromophenyl)-2-{2-chloro-5-[(cyclopropylsulfonamido)methyl]-phenylamino}-1-methylbenzimidazole-5-carboxamide] is 100%; for `CCC1(C(=O)NCc2ccc(Cl)c(Nc3nc4cc(C(=O)Nc5ccc(Br)cc5)ccc4n3C)c2)CCCC1` [Example 46, N-(4-Bromophenyl)-2-{2-chloro-5-[(1-ethylcyclopentylamido)methyl]-phenylamino}-1-methylbenzimidazole-5-carboxamide] it is 100%.
`CSC1(C(=O)NCc2ccc(Cl)c(Nc3nc4cc(C(=O)Nc5ccc(Br)cc5)ccc4n3C)c2)CCCC1` [Example 47, N-(4-Bromophenyl)-2-{2-chloro-5-[(1-methylthiocyclopentylamido)-methyl]phenylamino}-1-methylbenzimidazole-5-carboxamide]: the inhibition at 10 µM came to 100%.
Regarding `Cn1c(Nc2cc(CNC(=O)C3(CC4CC4)CCCC3)ccc2Cl)nc2cc(C(=O)Nc3ccc(Br)cc3)ccc21` [Example 48, N-(4-Bromophenyl)-2-{2-chloro-5-[(1-cyclopropylmethylcyclopentyl-amido)methyl]phenylamino}-1-methylbenzimidazole-5-carboxamide], the inhibition at 10 µM was 100%.
